Earlier results in US5281578A, “Gallium compounds” (Johnson Matthey Public Limited Company, priority 1992, dated 1994).
Like-named read-outs stand apart in the source and are kept apart here.

How the values were obtained:
[1] = pH 4.5-7

| absorption from the gastro-intestinal tract [1] | SMILES | renal toxicity (renal toxicity; iv bolus) | renal toxicity (renal toxicity; seven day continuous iv infusion, cancer-associated hypercalcemia) |
| --- | --- | --- | --- |
| very poorly absorbed | [Ga+3] [gallium(III) aquo-ion] |  |  |
|  | [Ga] [gallium] | dose-limiting | no renal toxicity |
